The values that follow come from patent US20040204577A1, “Novel peptide-forming enzyme gene” (Ajinomoto Co., Inc., priority 2003, published 2004).

Where a SMILES comes first, the peptide text is derived from it. [ ]: non-standard residue; d: D form. The star is where a group is joined. Boc = CC(C)(C)OC(=O)*; Aib = CC(C)(N)C(=O)O

Test [1] relates to enzyme derived from Sphingobacterium sp. strain FERM BP-8124 (SP-Sepharose HP fraction enzyme). Put plainly: Enzyme substrate specificity (11), (12): peptide production. In kind it is biochemical. Further details: key to Produced peptide (Table 15-1) / Produced peptide (Table 15-3) / Produced peptide (Table 15-4): +: those peptides for which production was confirmed but which were unable to be quantified due to the absence of a standard; a trace amount. The conditions noted are these: carboxy component 100 mM, amine component 150 mM, 0.33 units enzyme, pH 9.0, 25° C., 1.5 hours. The source says: Substrate specificity was examined for enzyme derived from Sphingobacterium sp. strain FERM BP-8124 (Depositary institution: the independent administrative corporation, National Institute of Advanced Industrial Science and Technology, International Patent Organism Depositary, Address of depositary institution: Chuo Dai-6, 1-1 Higashi 1-Chome, Tsukuba-shi, Ibaraki-ken, Japan, International deposit date: […] The amounts of various peptides formed in this reaction are shown in Table 15. The “+” mark indicates those peptides for which production was confirmed but which were unable to be quantified due to the absence of a standard, while “tr” indicates a trace amount. Furthermore, Tween-80 was added to the reaction system to a final concentration of 0.1% in the case of using L-Tyr-OMe. In addition, hydrochloride salts were used for all carboxy components. Substrate specificity with respect to oligopeptide production was examined for enzyme derived from Sphingobacterium sp. strain FERM BP-8124 (Depositary institution: the independent administrative corporation, National Institute of Advanced Industrial Science and Technology, International Patent Organism Depositary, Address of depositary institution: Chuo Dai-6, 1-1 Higashi 1-Chome, Tsukuba-shi, Ibaraki-ken, Japan, International deposit date: […] The amounts of each oligopeptide formed in this reaction are shown in Table 16. Furthermore, hydrochloride salts were used for all the carboxy components.

The test system of test [2] is peptide-forming enzyme (Mono S fraction enzyme). The experiment in a line: Enzyme substrate specificity (1)-(10), (13), (14): peptide production. It counts as biochemical, Empedobacter brevis. Details: key to Formed peptide: +: those peptides for which production was confirmed but which were unable to be quantified due to the absence of a standard; a trace amount. The conditions noted are these: for Formed peptide / L-Ala-L-Gln formed: pH 9.0, 25° C.; for Formed peptide: 3 hours; for L-Ala-L-Gln formed: 200 mM L-glutamine, 2 hours; for Produced peptide: 0.1 unit enzyme, 25° C. How it is done: Ester specificity was examined in the case of using L-amino acid ester for the carboxy component. 2 μl of the same enzyme fraction as used in Example 5 was added to 100 μl of 100 mM borate buffer (pH 9.0) containing the carboxy components indicated in Table 4 at 100 mM, 200 mM L-glutamine and 10 mM EDTA, and allowed to react at 25° C. for 2 hours. HCl represents hydrochloride in Table 4.
Peptide production was examined in the case of using L-alanine methyl ester for the carboxy component and using various L-amino acids for the amine component.
Peptide production was examined in the case of using various types of L-amino acid methyl esters for the carboxy component and using L-glutamine for the amine component. 2 μl of the same enzyme fraction as used in Example 5 was added to 100 μl of 100 mM borate buffer (pH 9.0) containing the L-amino acid methyl ester hydrochloride salts (AA-OMe.HCl) shown in Table 6 at 100 mM, 150 mM L-glutamine and 10 mM EDTA, and allowed to react at 25° C. for 3 hours. […] Furthermore, Tween-80 was added to the reaction system to a final concentration of 0.1% in the case of using L-Trp-OMe and L-Tyr-OMe.
Peptide production was examined in the case of using various L-amino acid methyl esters for the carboxy component and various L-amino acids for the amine component. 2 μl of the same enzyme fraction as used in Example 5 was added to 100 μl of 100 mM borate buffer (pH 9.0) containing the L-amino acid methyl ester hydrochloride salts (AA-OMe.HCl) shown in Table 7 at 100 mM, the L-amino acids shown in Table 7 at 150 mM and 10 mM EDTA, and allowed to react at 25° C. for 3 hours. The “tr” indicates a trace amount. Furthermore, Tween-80 was added to the reaction system to a final concentration of 0.1% in the case of using L-Trp-OMe.
Peptide production was examined in the case of using the L or D forms of various amino acid methyl esters for the carboxy component, and the L or D forms of various amino acids for the amine component. 2 μl of the same enzyme fraction as used in Example 5 was added to 100 μl of 100 mM borate buffer (pH 9.0) containing the various amino acid methyl ester hydrochloride salts (AA-OMe HCl) shown in Table 8 at 100 mM, the various amino acids shown in Table 8 at 150 mM and 10 mM EDTA, and allowed to react at 25° C. for 3 hours. The “tr” indicates a trace amount.
Peptide production was examined using various L-amino acid amides for the carboxy component, and various L-amino acids for the amine component. 2 μl of the same enzyme fraction as that used in Example 5 was added to 100 μl of 100 mM borate buffer (pH 9.0) containing the L-amino acid amide hydrochloride salt (M-NH2.HCl) shown in Table 9 at 100 mM, the L-amino acids shown in Table 9 at 150 mM and 10 mM EDTA, and allowed to react at 25° C. for 3 hours.
Peptide production was examined in the case of using various L-alanine methyl esters for the carboxy component and C-protected L-amino acids for the amine component. 2 μl of the same enzyme fraction as used in Example 5 was added to 100 μl of 100 mM borate buffer (pH 9.0) containing the L-alanine methyl ester hydrochloride hydrochloride salt (Ala-OMe.HCl) shown in Table 10 at 100 mM, the L-amino acid amide hydrochloride salts shown in Table 10 at 150 mM and 10 mM EDTA, and allowed to react at 25° C. for 3 hours.
Peptide production was examined in the case of using various amino acid methyl esters for the carboxy component and methylamine for the amine component. 2 μl of the same enzyme fraction as used in Example 5 was added to 100 μl of 100 mM borate buffer (pH 9.0) containing the amino acid methyl ester hydrochloride salt (M-OMe.HCl) shown in Table 11 at 100 mM, the methylamine shown in Table 11 at 150 mM and 10 mM EDTA, and allowed to react at 25° C. for 3 hours.
Peptide production was examined in the case of using […] for the carboxy component or β-amino acid for the amine component.

The mark [3] stands for this setting: L-amino acid methyl ester hydrochloride 100 mM, L-amino acid 150 mM.
[4] abbreviates: L or D amino acid methyl ester hydrochloride 100 mM, L or D amino acid 150 mM.
The mark [5] stands for this setting: β-amino acid ester or β-amino acid, carboxy component 100 mM, amine component 150 mM.

Consider `NC(N)=NCCC[C@H](N)C(=O)N[C@@H](Cc1ccccc1)C(=O)O` [L-Arg-L-Phe], for which the “Produced peptide (Table 15-3)” value in test [1] was “tr”. In test [2] (setting [3]), this molecule had a Formed peptide of 1.9 mM. `N[C@@H](CO)C(=O)N[C@@H](Cc1ccccc1)C(=O)O` [L-Ser-L-Phe]: in test [1], the “Produced peptide (Table 15-3)” value is 4.3 mM. In test [2] (setting [3]), the Formed peptide came out at 20.3 mM.

As to `CC(C)[C@H](N)C(=O)N[C@@H](Cc1ccccc1)C(=O)O` [L-Val-L-Phe] (H-Val-Phe-OH), the “Produced peptide (Table 15-3)” value in test [1] turned out to be 1.0 mM. This molecule also came in with a Formed peptide in test [2] (setting [3]) of 6.1 mM. Take `CSCC[C@H](NC(=O)[C@@H](N)CO)C(=O)O` [L-Ser-L-Met] (H-Ser-Met-OH): in test [1], the “Produced peptide (Table 15-3)” value worked out at 7.6 mM. The molecule further gave a Formed peptide in test [2] (setting [3]) of 12.5 mM. Turning to `C[C@H](N)C(=O)N[C@@H](Cc1c[nH]c2ccccc12)C(=O)O` [L-Ala-L-Trp] (H-Ala-Trp-OH), the “Produced peptide (Table 15-1)” value in test [1] is on record as 46.0 mM. This molecule yielded a Formed peptide in test [2] (100 mM L-alanine methyl ester hydrochloride, L-amino acid 150 mM) of 53.9 mM. With `CSCC[C@H](N)C(=O)N[C@@H](CO)C(=O)O` [L-Met-L-Ser] (H-Met-Ser-OH), the “Produced peptide (Table 15-3)” value in test [1] was 25.3 mM. `CSCC[C@H](NC(=O)[C@@H](N)CCSC)C(=O)O` [L-Met-L-Met] (H-Met-Met-OH): the “Produced peptide (Table 15-3)” value in test [1] turned out to be 28.4 mM. In test [2] (setting [3]), `NC(=O)C[C@H](N)C(=O)N[C@@H](CCC(=O)O)C(=O)O` [L-Asn-L-] (H-Asn-Glu-OH) displayed a Formed peptide of 10.2 mM. `CCOC(=O)[C@H](C)N.Cl` [L-Alanine ethyl ester.HCl] gave a L-Ala-L-Gln formed in test [2] (carboxy component 100 mM) of 91.5 mM. As for `C[C@H](O)[C@@H](N)C(=O)N[C@H](CO)C(=O)O` [D-Thr-D-Ser] (H-[dT]-[dS]-OH), the Formed peptide in test [2] (setting [4]) was found to be 1.1 mM.

In test [2] (setting [3]), `CSCC[C@H](NC(=O)[C@@H](N)Cc1c[nH]c2ccccc12)C(=O)O` [L-Trp-L-Met] (H-Trp-Met-OH) returned a Formed peptide of 4.1 mM. In test [2] (setting [4]), `N[C@@H](CO)C(=O)N[C@H](CO)C(=O)O` [L-Ser-D-Ser] (H-Ser-[dS]-OH) had a Formed peptide of 16.2 mM.

In test [2] (setting [4]), `C[C@@H](N)C(=O)N[C@@H](CCC(N)=O)C(=O)O` [D-Ala-L-Gln] (H-[dA]-Gln-OH) gave a Formed peptide of 69.3 mM. In the case of `C[C@H](N)C(=O)N[C@@H](CCCCNC(=O)OC(C)(C)C)C(=O)O` [H-Ala-Lys(Boc)-OH] (H-Ala-Lys(Boc)-OH), the Produced peptide in test [2] (carboxy component 100 mM, amine component 150 mM, reaction time 2 hr) was determined as 51.0 mM.

Take `CC(C)(N)C(=O)N[C@@H](CCC(N)=O)C(=O)O` [H-Aib-H-Gln-OH] (H-[Aib]-Gln-OH): the Produced peptide in test [2] (carboxy component 100 mM, amine component 150 mM, reaction time 3 hr) is given as 18.8 mM. With `CC(C)C[C@H](N)C(=O)N[C@@H](CCC(N)=O)C(=O)O` [L-Leu-L-Gln] (H-Leu-Gln-OH), the Formed peptide entry in test [2] (L-amino acid methyl ester hydrochloride 100 mM, 150 mM L-glutamine) is listed as “+”. `CC(C)OC(=O)[C@H](C)N.Cl` [L-Alanine isopropyl ester.HCl] had a L-Ala-L-Gln formed in test [2] (carboxy component 100 mM) of 78.9 mM. In the case of `C[C@H](O)[C@@H](N)C(=O)N[C@@H](CO)C(=O)O` [D-Thr-L-Ser] (H-[dT]-Ser-OH), the Formed peptide in test [2] (setting [4]) is on record as 1.0 mM. In test [2] (carboxy component 50 mM, amine component 50 mM, reaction time 3 hr), `C[C@H](N)C(=O)N[C@@H](Cc1ccc(F)cc1)C(=O)O` [H-Ala-p-F-Phe-OH] gave a Produced peptide of 21.9 mM. Take `C[C@H](NC(=O)CCN)C(=O)O` [β-Ala-L-α-Ala]: the Formed peptide result in test [2] (setting [5]) is given as “tr”. Take `CSCC[C@H](N)C(=O)N[C@H](CO)C(=O)O` [L-Met-D-Ser] (H-Met-[dS]-OH): the Formed peptide in test [2] (setting [4]) is given as 1.9 mM. In test [2] (setting [4]), `C[C@@H](O)[C@H](N)C(=O)N[C@H](CO)C(=O)O` [L-Thr-D-Ser] (H-Thr-[dS]-OH) displayed a Formed peptide of 6.9 mM.

`C[C@H](N)C(=O)N[C@@H](Cc1ccc(Cl)cc1)C(=O)O` [H-Ala-Cl-F-Phe-OH] returned a Produced peptide in test [2] (carboxy component 40 mM, amine component 40 mM, reaction time 3 hr) of 20.8 mM. Take `C[C@@H](O)[C@H](N)C(=O)NC(CC(=O)O)c1ccccc1` (stereo partly drawn) [Thr-β-Phe]: the Formed peptide in test [2] (setting [5]) was 1.4 mM.

As for `C[C@@H](N)C(=O)N[C@H](CCC(N)=O)C(=O)O` [D-Ala-D-Gln] (H-[dA]-[dQ]-OH), the Formed peptide result in test [2] (setting [4]) is “tr”.
